Data: BindingDB's records for doi:10.7270/Q2K935WV (Nmmlsc, 2008)

Target: Isoform Bcl-X(L) of Bcl-2-like protein 1 (Bcl-xL) (Homo sapiens, UniProt Q07817)
Assay: Bim-Bcl-XL interaction inhibitors, potency, dose response, biochemical, multiplexed, bead flow cytometry, human Bcl-XL (AID 1322)
Details: pH 7.4, 4 °C
[1] = inactive by the depositor's call

Chain of Isoform Bcl-X(L) of Bcl-2-like protein 1 (Bcl-xL) (Q07817 whole entry G70A, canonical isoform): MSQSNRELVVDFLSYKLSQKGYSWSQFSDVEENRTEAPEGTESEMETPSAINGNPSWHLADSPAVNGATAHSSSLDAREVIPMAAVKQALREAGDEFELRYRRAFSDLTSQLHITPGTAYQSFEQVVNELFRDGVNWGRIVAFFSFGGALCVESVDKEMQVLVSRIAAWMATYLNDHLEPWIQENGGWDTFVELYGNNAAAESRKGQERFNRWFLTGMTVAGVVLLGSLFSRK

| EC50 [1] | EC50 | SMILES |
| --- | --- | --- |
| 0.41 µM |  | O=c1c2c(-c3ccccc3)csc2nc2c3ccccc3c(NCCN3CCOCC3)nn12 [SMR000352519] |
|  | 26.4 µM | CCN1/C(=C/C(C)=C/c2sc3ccccc3[n+]2CC)Sc2ccccc21 [SMR000354813] |
| 24 µM |  | Cc1ccnc(Nc2nc(-c3c(C)nc4sccn34)cs2)c1 [[4-(6-Methyl-imidazo[2,1-b]thiazol-5-yl)-thiazol-2-yl]-(4-methyl-pyridin-2-yl)-amine] |
| 13.5 µM |  | CCOC(=O)c1nc(Nc2ccc(C(=O)OC)cc2)c2ccccc2n1 [ethyl 4-(4-methoxycarbonylanilino)quinazoline-2-carboxylate] |
| 2.64 µM |  | CN(N=Cc1ccncc1)C1=NS(=O)(=O)c2ccccc21 [isonicotinaldehyde (1,1-dioxido-1,2-benzisothiazol-3-yl)(methyl)hydrazone] |
